Measurements taken from ChEMBL document CHEMBL2086254, “Synthesis and identification of novel indolo[2,3-a]pyrimido[5,4-c]carbazoles as a new class of anti-cancer agents” (Eur J Med Chem, 2012).

Experiments:
Format in all cases: functional
[1] = tested on: U-251; experiment: Cytotoxicity against human U251 cells assessed as cell growth at 10 uM after 48 hrs by SRB assay relative to control; details: U-251, 48 h, read-out: Activity
[2] = tested on: HCC 2998; experiment: Cytotoxicity against human HCC2998 cells assessed as cell growth at 10 uM after 48 hrs by SRB assay relative to control; details: HCC 2998, 48 h, read-out: Activity
[3] = tested on: OVCAR-3; experiment: Cytotoxicity against human OVCAR3 cells assessed as cell growth at 10 uM after 48 hrs by SRB assay relative to control; details: OVCAR-3, 48 h, read-out: Activity
[4] = tested on: M14; experiment: Cytotoxicity against human M14 cells assessed as cell growth at 10 uM after 48 hrs by SRB assay relative to control; details: M14, 48 h, read-out: Activity
[5] = tested on: A549; experiment: Cytotoxicity against human A549 cells assessed as cell growth at 10 uM after 48 hrs by SRB assay relative to control; details: A549, 48 h, read-out: Activity
[6] = tested on: HOP-62; experiment: Cytotoxicity against human HOP62 cells assessed as cell growth at 10 uM after 48 hrs by SRB assay relative to control; details: HOP-62, 48 h, read-out: Activity
[7] = tested on: SK-MEL-2; experiment: Cytotoxicity against human SK-MEL-2 cells assessed as cell growth at 10 uM after 48 hrs by SRB assay relative to control; details: SK-MEL-2, 48 h, read-out: Activity
[8] = tested on: CAKI-1; experiment: Cytotoxicity against human Caki1 cells assessed as cell growth at 10 uM after 48 hrs by SRB assay relative to control; details: CAKI-1, 48 h, read-out: Activity
[9] = tested on: MCF7; experiment: Cytotoxicity against human MCF7 cells assessed as cell growth at 10 uM after 48 hrs by SRB assay relative to control; details: MCF7, 48 h, read-out: Activity
[10] = tested on: SK-MEL-28; experiment: Cytotoxicity against human SK-MEL-28 cells assessed as cell growth at 10 uM after 48 hrs by SRB assay relative to control; details: SK-MEL-28, 48 h, read-out: Activity
[11] = tested on: NCI-H23; experiment: Cytotoxicity against human NCI-H23 cells assessed as cell growth at 10 uM after 48 hrs by SRB assay relative to control; details: NCI-H23, 48 h, read-out: Activity
[12] = Cytotoxicity against human Hs 578T cells assessed as cell growth at 10 uM after 48 hrs by SRB assay relative to control; details: read-out: Activity
[13] = tested on: MDA-MB-468; experiment: Cytotoxicity against human MDA-MB-468 cells assessed as cell growth at 10 uM after 48 hrs by SRB assay relative to control; details: MDA-MB-468, 48 h, read-out: Activity
[14] = tested on: OVCAR-8; experiment: Cytotoxicity against human OVCAR8 cells assessed as cell growth at 10 uM after 48 hrs by SRB assay relative to control; details: OVCAR-8, 48 h, read-out: Activity
[15] = tested on: RXF 393; experiment: Cytotoxicity against human RXF393 cells assessed as cell growth at 10 uM after 48 hrs by SRB assay relative to control; details: RXF 393, 48 h, read-out: Activity
[16] = tested on: UO-31; experiment: Cytotoxicity against human UO31 cells assessed as cell growth at 10 uM after 48 hrs by SRB assay relative to control; details: UO-31, 48 h, read-out: Activity
[17] = tested on: UACC-62; experiment: Cytotoxicity against human UACC62 cells assessed as cell growth at 10 uM after 48 hrs by SRB assay relative to control; details: UACC-62, 48 h, read-out: Activity
[18] = tested on: SNB-75; experiment: Cytotoxicity against human SNB75 cells assessed as cell growth at 10 uM after 48 hrs by SRB assay relative to control; details: SNB-75, 48 h, read-out: Activity
[19] = tested on: ACHN; experiment: Cytotoxicity against human ACHN cells assessed as cell growth at 10 uM after 48 hrs by SRB assay relative to control; details: read-out: Activity
[20] = tested on: RPMI-8226; experiment: Cytotoxicity against human RPMI8226 cells assessed as cell growth at 10 uM after 48 hrs by SRB assay relative to control; details: RPMI-8226, 48 h, read-out: Activity
[21] = tested on: LOX IMVI; experiment: Cytotoxicity against human LOXIMVI cells assessed as cell growth at 10 uM after 48 hrs by SRB assay relative to control; details: read-out: Activity
[22] = tested on: HCT-116; experiment: Cytotoxicity against human HCT116 cells assessed as cell growth at 10 uM after 48 hrs by SRB assay relative to control; details: HCT-116, 48 h, read-out: Activity
[23] = tested on: NCI/ADR-RES; experiment: Cytotoxicity against human NCI/ADR-RES cells assessed as cell growth at 10 uM after 48 hrs by SRB assay relative to control; details: read-out: Activity
[24] = tested on: IGROV-1; experiment: Cytotoxicity against human IGROV1 cells assessed as cell growth at 10 uM after 48 hrs by SRB assay relative to control; details: IGROV-1, 48 h, read-out: Activity
[25] = tested on: MDA-MB-435; experiment: Cytotoxicity against human MDA-MB-435 cells assessed cell growth at 10 uM after 48 hrs by SRB assay relative to control
[26] = tested on: SF-295; experiment: Cytotoxicity against human SF295 cells assessed as cell growth at 10 uM after 48 hrs by SRB assay relative to control; details: SF-295, 48 h, read-out: Activity
[27] = tested on: SK-OV-3; experiment: Cytotoxicity against human SKOV3 cells assessed as cell growth at 10 uM after 48 hrs by SRB assay relative to control; details: SK-OV-3, 48 h, read-out: Activity
[28] = tested on: NCI-H226; experiment: Cytotoxicity against human NCI-H226 cells assessed as cell growth at 10 uM after 48 hrs by SRB assay relative to control; details: NCI-H226, 48 h, read-out: Activity
[29] = tested on: SW-620; experiment: Cytotoxicity against human SW620 cells assessed as cell growth at 10 uM after 48 hrs by SRB assay relative to control; details: SW-620, 48 h, read-out: Activity
[30] = tested on: TK-10; experiment: Cytotoxicity against human TK10 cells assessed as cell growth at 10 uM after 48 hrs by SRB assay relative to control; details: TK-10, 48 h, read-out: Activity
[31] = tested on: HCT-15; experiment: Cytotoxicity against human HCT15 cells assessed as cell growth at 10 uM after 48 hrs by SRB assay relative to control; details: HCT-15, 48 h, read-out: Activity
[32] = tested on: K562; experiment: Cytotoxicity against human K562 cells assessed as cell growth at 10 uM after 48 hrs by SRB assay relative to control; details: K562, 48 h, read-out: Activity
[33] = tested on: A498; experiment: Cytotoxicity against human A498 cells assessed as cell growth at 10 uM after 48 hrs by SRB assay relative to control; details: A498, 48 h, read-out: Activity
[34] = tested on: SK-MEL-5; experiment: Cytotoxicity against human SK-MEL-5 cells assessed as cell growth at 10 uM after 48 hrs by SRB assay relative to control; details: SK-MEL-5, 48 h, read-out: Activity
[35] = tested on: SF-539; experiment: Cytotoxicity against human SF539 cells assessed as cell growth at 10 uM after 48 hrs by SRB assay relative to control; details: SF-539, 48 h, read-out: Activity

SMILES	growth at 10 µM [1] [%]	growth at 10 µM [2] [%]	growth at 10 µM [3] [%]	growth at 10 µM [4] [%]	growth at 10 µM [5] [%]	growth at 10 µM [6] [%]	growth at 10 µM [7] [%]	growth at 10 µM [8] [%]	growth at 10 µM [9] [%]	growth at 10 µM [10] [%]	growth at 10 µM [11] [%]	growth at 10 µM [12] [%]	growth at 10 µM [13] [%]	growth at 10 µM [14] [%]	growth at 10 µM [15] [%]	growth at 10 µM [16] [%]	growth at 10 µM [17] [%]	growth at 10 µM [18] [%]	growth at 10 µM [19] [%]	growth at 10 µM [20] [%]	other results
Cn1cc(-c2c(-c3cn(C)c4ncccc34)nc(N)[nH]c2=O)c2ccccc21	77.5	109	99.7	103	102	91.5	105	90	86	11	92.6	101	116	95.8	124	79	97	87.5	87.6	85.1	growth at 10 µM [21]: 99.9%; growth at 10 µM [22]: 98%; growth at 10 µM [23]: 101%; growth at 10 µM [24]: 87.1%; Activity [25]: 98.77%; growth at 10 µM [26]: 98.2%; growth at 10 µM [27]: 98.3%; growth at 10 µM [28]: 84.2%; growth at 10 µM [29]: 97.5%; growth at 10 µM [30]: 113%; growth at 10 µM [31]: 103%; growth at 10 µM [32]: 95%; growth at 10 µM [33]: 85.7%; growth at 10 µM [34]: 96.5%; growth at 10 µM [35]: 104%
Cn1cc(-c2[nH]c(=S)[nH]c(=O)c2-c2cn(C)c3ccccc23)c2ccccc21	89	113	98.7	106	103	92.3	111	82.4	68.2	104	94.2	103	107	102	123	75.8	93.4	85.7	95.5	91	growth at 10 µM [21]: 92.2%; growth at 10 µM [22]: 98.8%; growth at 10 µM [23]: 101%; growth at 10 µM [24]: 75.7%; Activity [25]: 77.23%; growth at 10 µM [26]: 94.2%; growth at 10 µM [27]: 100%; growth at 10 µM [28]: 87.1%; growth at 10 µM [29]: 98%; growth at 10 µM [30]: 96.3%; growth at 10 µM [31]: 95.2%; growth at 10 µM [32]: 87%; growth at 10 µM [33]: 102%; growth at 10 µM [34]: 96.2%; growth at 10 µM [35]: 99.1%
